# Like-named read-outs stand apart in the source and are kept apart here.
# How the values were obtained:
# [1] = system: visceral hypersensitivity in post-colitis rats; assay: Visceromotor response (VMR) to colorectal distensions, TNBS-induced post-colitis rat model for visceral hypersensitivity; assay type: in vivo, Sprague–Dawley rats
# Experimental: A well-characterized 2,4,6-trinitrobenzene sulfonic acid (TNBS)-induced post-colitis rat model for visceral hypersensitivity was used in this study. Details on the procedures are given in subsequent paragraphs. After acclimation, an enema containing TNBS was used to induce a mild colitis, whereas control rats received an enema containing saline. The presence and severity of acute colitis were scored colonoscopically 3 days later. Subsequently, a colonoscopy was performed starting from day 10 and repeated every 4 days until complete mucosal healing was observed. Then, electromyographic (EMG) electrodes were implanted in the abdominal musculature of the rat and exteriorized at the scapular region. Three days later, the serine protease inhibitor UAMC-00050 or its vehicle was given intracolonically. Thirty minutes after the single administration of the drug, visceral sensitivity to colorectal distensions and colonic compliance were evaluated. Finally, animals were sacrificed (exsanguination under pentobarbital anesthesia, 45 mg/kg i.p.) and inflammatory parameters (colonoscopy, macroscopy, microscopy, and myeloperoxidase (MPO) activity) were scored to confirm the post-inflammatory state of the animal and to evaluate effects of the compound on mucosal inflammation. Colonic and fecal samples were taken for the assessment of proteolytic activities using selective fluorogenic substrates. Pharmacokinetic experiments were performed in a separate group of rats.
# After an overnight fast with free access to water, rats were anesthetized with a mixture of ketamine (35 mg/kg, i.p.) and xylazine (5 mg/kg, i.p.) and placed in a Trendelenburg position. A flexible catheter (18 G, length 4.5 cm) was used to administer a 250 µL TNBS-enema (4 mg in 50% ethanol) or saline in the distal colon of randomized colitis and control rats, respectively, according to previously published protocols. Afterwards, animals were allowed to recover in their own cages with free access to water and food.
# The serine protease inhibitor UAMC-00050 (0.1–1.0–2.5–5.0 mg/kg, dissolved in a volume of 200 µL) or its vehicle (5% DMSO in H2O) was delivered colonically using a flexible catheter (18 G, length 4.5 cm) under short-lasting isoflurane anesthesia (5.0% induction, 1.5% maintenance). To prevent expulsion of the enema, animals were held in a Trendelenburg position for 90 s. Doses for intracolonic administration were based on the doses known to be effective via an i.p. administration and adapted afterwards based on preliminary results.
# Contractions of the abdominal musculature in response to isobaric colorectal distensions, a nociceptive reflex known as the visceromotor response (VMR), were used to quantify colonic mechanosensitivity in vivo [24, 28]. To this end, 2 Teflon-coated EMG electrodes (AISI 316 stainless steel, ø 0.125 mm, Advent Research Material Ltd., Oxford, UK) were sutured into the abdominal external oblique muscle, in close proximity to the right inguinal ligament and 5 mm apart. Then, the electrodes were tunneled, subcutaneously towards the base of the neck, exteriorized, and fixated with a plastic cap for future access. Rats were single-housed during their 3-day recovery after the surgical procedure to protect the electrodes and plastic cap from damage.
# On the day of the VMR experiment, a lubricated balloon (length 5.0 cm) was introduced into the colorectum of the conscious rat and connected to a barostat, allowing phasic isobaric colonic distensions (Distender Series IIR Barostat, G&J Electronics, Toronto, ON, Canada). EMG electrodes were attached to a data acquisition system and a standardized, pressure-controlled phasic distension protocol was used to expand the balloon (20 s distensions of 10–20–30–40–60 mmHg, 4 min interval). […]
# [2] = system: MPO activity in colonic tissue; assay: Colonic myeloperoxidase (MPO) activity; assay type: in vivo, Sprague–Dawley rats; details: for MPO Activity, Day of VMR: mean ± SEM, n = 8, significant effect of treatment
# Experimental: Finally, colonic MPO activity was determined in a full-thickness colonic segment (±30 mg) as published previously. MPO is a pro-inflammatory enzyme stored in the azurophilic granules of neutrophilic granulocytes and monocytes. […] One unit (U) of MPO activity is defined as the amount of enzyme required to convert 1 µmol H2O2 to H2O within 1 min at 25 °C and is expressed as U/g tissue.
# thrombin = system: thrombin; set-up: method as in PMID 29911328; details: in vitro; cited from earlier work
# kallikrein 2 = system: kallikrein 2; set-up: method as in PMID 29911328; details: in vitro; cited from earlier work
# neutrophil elastase = system: neutrophil elastase; set-up: method as in PMID 29911328; details: in vitro; cited from earlier work
# [3] = system: visceral hypersensitivity in post-colitis rats; set-up: method as in PMID 29911328; details: TNBS-induced post-inflammatory rats, intraperitoneally; cited from earlier work
# dry eye syndrome = system: dry eye syndrome; set-up: method as in PMID 33057006; details: rat model of dry eye syndrome; cited from earlier work
compound,measurement,setting,value
CC(=O)Nc1ccc(OP(=O)(Oc2ccc(NC(C)=O)cc2)C(Cc2ccc(N=C(N)N)cc2)NC(=O)OCc2ccccc2)cc1.Cl (centres unmarked) [UAMC-00050],Effect on visceral sensitivity (VMR),"[1]; control rats, 5.0 mg/kg single intracolonic administration",no changes in visceral sensitivity
same,Effect on visceral sensitivity (VMR),"[1]; post-colitis rats, 0.1 mg/kg single intracolonic administration, 30 min before",attenuated visceral sensitivity at 30 and 40 mmHg
same,Effect on visceral sensitivity (VMR),"[1]; post-colitis rats, 1.0 mg/kg single intracolonic administration, 30 min before",decreased visceral sensitivity at 20 mmHg
same,Effect on visceral sensitivity (VMR),"[1]; post-colitis rats, 2.5 mg/kg single intracolonic administration, 30 min before",completely restored sensitivity to normal values
same,Effect on visceral sensitivity (VMR),"[1]; post-colitis rats, 5.0 mg/kg single intracolonic administration, 30 min before",VMRs that were even lower than those in control rats
same,Dose required to obtain complete reversal of visceral hypersensitivity,"[1]; post-colitis rats, intracolonic",2.5 mg/kg
same,"MPO Activity, Day of VMR","[2]; control rats, 5.0 mg/kg intracolonic, vehicle 0.3 ± 0.1",0.6 ± 0.2 U/g tissue
same,"MPO Activity, Day of VMR","[2]; post-colitis rats, 0.1 mg/kg intracolonic, vehicle 0.3 ± 0.2",2.0 ± 0.7 U/g tissue
same,"MPO Activity, Day of VMR","[2]; post-colitis rats, 1.0 mg/kg intracolonic, vehicle 0.3 ± 0.2",2.0 ± 0.5 U/g tissue
same,"MPO Activity, Day of VMR","[2]; post-colitis rats, 2.5 mg/kg intracolonic, vehicle 0.3 ± 0.2",2.1 ± 0.5 U/g tissue
same,"MPO Activity, Day of VMR","[2]; post-colitis rats, 5.0 mg/kg intracolonic, vehicle 0.3 ± 0.2",1.7 ± 0.5 U/g tissue
same,Effect on colonic MPO activity,"[2]; single intracolonic administration, both control and post-colitis animals",increased
same,inhibition of thrombin,thrombin,efficiently inhibits
same,inhibition of kallikrein 2,kallikrein 2,efficiently inhibits
same,inhibition of neutrophil elastase,neutrophil elastase,did not efficiently inhibit
same,Dose required to obtain complete reversal of visceral hypersensitivity,[3],1.0 mg/kg
same,Effect on inflammation,dry eye syndrome,anti-inflammatory effects

# Source: PMC8229129, “Local Colonic Administration of a Serine Protease Inhibitor Improves Post-Inflammatory Visceral Hypersensitivity in Rats” (Pharmaceutics, 2021)
